Kd data for 1 compound are collected here from BindingDB's records for doi:10.1021/jm00375a008 (1984).

The target in this assay is Progesterone receptor (Gallus gallus) (UniProt P07812). As to the kind of experiment: Equilibrium dissociation constant for chick oviduct progesterone receptor.
Chain of Progesterone receptor (Gallus gallus) (P07812 whole entry, looked up): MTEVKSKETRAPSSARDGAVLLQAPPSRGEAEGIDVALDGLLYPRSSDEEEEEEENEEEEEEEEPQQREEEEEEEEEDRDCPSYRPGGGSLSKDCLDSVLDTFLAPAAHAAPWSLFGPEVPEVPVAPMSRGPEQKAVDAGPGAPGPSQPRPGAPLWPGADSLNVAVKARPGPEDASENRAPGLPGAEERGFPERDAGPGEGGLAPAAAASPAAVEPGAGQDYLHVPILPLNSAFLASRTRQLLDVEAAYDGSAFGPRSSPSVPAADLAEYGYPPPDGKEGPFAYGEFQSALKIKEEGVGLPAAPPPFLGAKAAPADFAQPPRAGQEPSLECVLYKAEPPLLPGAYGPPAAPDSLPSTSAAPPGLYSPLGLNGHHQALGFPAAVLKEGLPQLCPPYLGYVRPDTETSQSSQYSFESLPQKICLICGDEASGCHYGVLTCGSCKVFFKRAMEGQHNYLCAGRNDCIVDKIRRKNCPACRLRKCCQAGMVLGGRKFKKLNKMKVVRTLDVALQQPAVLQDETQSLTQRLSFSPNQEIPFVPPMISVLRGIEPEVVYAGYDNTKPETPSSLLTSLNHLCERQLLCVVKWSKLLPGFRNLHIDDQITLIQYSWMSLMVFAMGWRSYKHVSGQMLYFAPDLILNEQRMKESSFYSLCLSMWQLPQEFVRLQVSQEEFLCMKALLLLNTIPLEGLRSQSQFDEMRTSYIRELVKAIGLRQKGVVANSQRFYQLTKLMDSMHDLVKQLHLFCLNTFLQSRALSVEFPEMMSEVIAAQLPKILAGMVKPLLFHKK

In the case of `C#C[C@@H](O)C12CCCC1C1CCC3=CC(=O)CC[C@@H]3C1CC2` (stereo partly specified), the affinity, expressed as Kd, was 160 nM.
